SMILES strings stand for the structures. Numbers after ± are expanded uncertainties.

The text below walks through data of the NIST ThermoML archive (doi:10.1016/j.fluid.2014.12.033).

The conditions of the data set: Liquid.

For `CCCCC(CC)COP(=O)(O)OCC(CC)CCCC` (centres undefined) [bis(2-ethylhexyl) hydrogen phosphate], where the note is “DSC”, the Normal boiling temperature was determined as 260 ± 16 °C. Regarding `ClC(Cl)Cl` [trichloromethane], the Normal boiling temperature (Distillation) was determined as 62 ± 1 °C. `C1CCCCC1` [cyclohexane]: the Normal boiling temperature (Distillation) came out at 82 ± 1 °C. Still for that read-out and setting: in the case of `CCCCCCCCO` [octan-1-ol] it was 193 ± 1 °C.
